Reference: patent publication US20250032488A1, “METHODS OF TREATMENT USING LOU064” (NOVARTIS AG, priority 2021, published 2025)

Assays:
BALB/c mice = test: Passive cutaneous anaphylaxis (PCA) in mice: skin edema; type: in vivo; settings: doses as low as 3 mg/kg, two oral administrations
Protocol: (§1) LOU064 was tested in a murine PCA model. The model used BALB/c mice aged 8-10 weeks of age. For passive sensitization with hapten-specific IgE, mice under isoflurane anesthesia were given an intradermal injection of 20 μl anti-DNP IgE in saline into the right ear and 20 μl of saline into the left ear. For FccR-specific PCA, mice were given a low dose of 3 ng anti-DNP IgE. For maximal PCA mice were given a high dose of 25 ng anti-DNP IgE. LOU064 was administered p.o. in a volume of 5 ml/kg body weight. A first dose was administered 4 hours after sensitization on the evening before challenge. The next morning, 2 hours prior to hapten challenge, mice were given a second oral dose of LOU064.
Mice were challenged with hapten 2 hours after the second dose by placing them into a heated chamber. Animals were then injected i.v. with 100 μg of the hapten DNP-HSA (dinitrophenyl-human serum albumin) in 200 μl of 2% Evans blue diluted in PBS. The mice were then returned to their cage for exactly 30 minutes. Thirty minutes later, animals were then anesthetized with isoflurane and bled retro-orbitally using EDTA coated blood collection tubes for analysis of compound exposure. […] Twenty-four hours later 80 μl of formalin solution were transferred to a clear flat bottom 96 well plate and the optical absorption was read at 620 nm. […] Statistical significance was determined by ANOVA. […]

[1] = Concentrations of LOU064 in blood, PCA study; type: in vivo, mice; settings: BALB/c, mouse, whole blood, oral, 2.5 hours after second dose, low-dose IgE sensitization, Mean ± SD (n = 5)
Protocol: as §1
Mice were challenged with hapten 2 hours after the second dose by placing them into a heated chamber. Animals were then injected i.v. with 100 μg of the hapten DNP-HSA (dinitrophenyl-human serum albumin) in 200 μl of 2% Evans blue diluted in PBS. The mice were then returned to their cage for exactly 30 minutes. Thirty minutes later, animals were then anesthetized with isoflurane and bled retro-orbitally using EDTA coated blood collection tubes for analysis of compound exposure. The mice were then sacrificed by cervical dislocation. A 6 mm punch biopsy was taken from both the left and the right ear and placed into 100 μl of formalin. The skin biopsies were incubated at 80° C. overnight to extract the dye. Twenty-four hours later 80 μl of formalin solution were transferred to a clear flat bottom 96 well plate and the optical absorption was read at 620 nm. Analysis was performed by subtracting the left ear (saline) from the right ear (IgE) to determine how much dye was released into the skin tissue of the biopsy. Statistical significance was determined by ANOVA. Spleens were removed for BTK occupancy analysis.
Analysis of blood level: Blood samples were taken as denoted and compound measurement was performed. Blood samples were spiked with a structurally similar internal standard mixed with acetonitrile (4 volumes) and centrifuged at ˜ 4000 rpm (4° C.). Supernatant was then transferred into a microtiter plate. An aliquot of each sample was injected into an LC-MS/MS system for determination of concentrations of the parent molecule.
The concentrations of LOU064 present in mouse blood, 2.5 hours after the second compound dose are shown for the low-dose IgE sensitization in Table 1.

[2] = LOU064 levels in blood, RPA study; type: in vivo, mice
Protocol: Female C57BI6 mice (Charles River, France), 8-10 weeks of age, were used. The back of the mice was shaved 24 hours prior to the skin injections. This allowed any potential irritation of the skin to resolve. The Arthus reaction was triggered two hours after compound dosing in the dose-response study or at the timepoints noted in the time-course study. To elicit the Arthus reaction, 50 μl of PBS (control site) or polyclonal rabbit anti-ovalbumin IgG at a concentration of 30 μg in PBS (C6534, Sigma) was injected i.d. into the dorsal skin. The intradermal injection was followed immediately by an i.v. injection of 200 μl ovalbumin (20 mg/kg) in saline (05450 Fluka). Three hours after the injection of the ovalbumin the mice were killed, bled for monitoring of the compound concentration and the spleens removed for BTK occupancy measurement. The thickness of the injected control and anti-ovalbumin IgG skin sites was measured using a digital caliper, and the thickness of the anti-ovalbumin IgG injected sites minus the saline control sites were then calculated for the mice in all treatment groups.
Blood samples were taken as denoted and compound measurement was performed. Blood samples were spiked with a structurally similar internal standard mixed with acetonitrile (4 volumes) and centrifuged at ˜ 4000 rpm (4° C.). Supernatant was then transferred into a microtiter plate. An aliquot of each sample was injected into an LC-MS/MS system for determination of concentrations of the parent molecule.

LAD2 cells = test: FcER-induced mast cell degranulation in LAD2 cells; type: cell-based; settings: Homo sapiens, n=3, read-out: IC50, IgE/FcER-induced mast cell degranulation (β-tryptase)
Excerpt: Rationale and method: The human mastocytosis cell line LAD2 expresses FcERI and upon crosslinking of the receptor the cells degranulate and release inflammatory mediators like β-tryptase and hexosaminidase (Wernersson et al. 2014, Immunology; 14 (7): 478-94). The assay involves 4-hydroxy-3-iodo-5-nitrophenylacetic acid (NIP) haptenized bovine serum albumin (BSA) and the NIP-specific chimeric IgE antibody JW8 (Neuberger, M.S. et al. (1985), Nature 314 (6008), pp 268-70. doi: 10.1038/314268a0). The LAD2 cells were sensitized with JW8 IgE antibody and then incubated with serial compound dilutions for 30 minutes at 37° C. Then degranulation was triggered by adding haptenized NIP-BSA to crosslink the FcER. After one hour, supernatants were collected and analyzed for B-tryptase levels.

subjects with CSU = test: 52-week open label extension study in CSU: safety
Protocol: In a 52-week open label extension study to evaluate the long-term safety and tolerability of LOU064 in eligible subjects with CSU who participated in the Phase 2b study the dose used was 100 mg b.i.d.

[3] = 100 mg B.I.D., N = 100, interim cut off 31 Aug. 2020
[4] = ES, 100 mg b.i.d., N = 183, median 35.14 wks, listed as remibrutinib

With C=CC(=O)N(C)CCOc1c(N)ncnc1-c1cc(F)cc(NC(=O)c2ccc(C3CC3)cc2F)c1C [LOU064, N-(3-(6-amino-5-(2-(N-methylacrylamido)ethoxy)pyrimidin-4-yl)-5-fluoro-2-methylphenyl)-4-cyclopropyl-2-fluorobenzamide] the “Inhibition of the anaphylactic response (PCA)” value (BALB/c mice) was “near complete inhibition”, the concentration at 2.5 h ([1]; 3 mg/Kg p.o.) was 7 ± 2 nM and the concentration at 2.5 h ([1]; 10 mg/Kg p.o.) was 35 ± 14 nM. The concentration at 2.5 h ([1]; 30 mg/Kg p.o.) was 111 ± 56 nM, the concentration at 2.5 h ([1]; 100 mg/Kg p.o.) was 488 ± 371 nM and the concentration at 5 h ([2]; female, C57BI6, mouse, whole blood, oral, 3 mg/Kg single p.o., 5 hours after dosing) was 2.04 nM. For the same molecule, the concentration at 5 h ([2]; female, C57BI6, mouse, whole blood, oral, 10 mg/Kg single p.o., 5 hours after dosing, Mean ± SD) was 2.87 ± 0.58 nM, the concentration at 5 h ([2]; female, C57BI6, mouse, whole blood, oral, 30 mg/Kg single p.o., 5 hours after dosing, Mean ± SD) was 25.2 ± 20.9 nM and the concentration at 5 h ([2]; female, C57BI6, mouse, whole blood, oral, 100 mg/Kg single p.o., 5 hours after dosing, Mean ± SD) was 140 ± 63.9 nM. The concentration at 5 h ([2]; female, C57BI6, mouse, whole blood, single oral dose of 30 mg/kg, 5 hours post-dose, Mean ± SD (n = 5)) was 28.4 ± 18.2 nM, the concentration at 8 h ([2]; female, C57BI6, mouse, whole blood, single oral dose of 30 mg/kg, 8 hours post-dose, Mean ± SD (n = 5)) was 9.2 ± 6.7 nM and the Concentration in blood ([2]; single oral dose of 30 mg/kg, 19 hours post-dose) was “Below LLOQ”. The IC50 (LAD2 cells) was 7 nM, the Death (subjects with CSU; [3]) was 0 n and the “Discontinued study due to an SAE(s)” value (subjects with CSU; [3]) was 0 n. For the same molecule, the “Discontinued study due to any AE(s)” value (subjects with CSU; [3]) was 0 n, the “AE preferred term diarrhea” value (subjects with CSU; 100 mg b.i.d., N = 100 interim) was 4% and the “AE preferred term dizziness” value (subjects with CSU; 100 mg b.i.d., N = 100 interim) was 3%. The “AE preferred term gastroenteritis” value (subjects with CSU; 100 mg b.i.d., N = 100 interim) was 3%, the “AE preferred term headache” value (subjects with CSU; 100 mg b.i.d., N = 100 interim) was 6% and the “Bleeding events or events under SOC Blood and lymphatic system disorders” value (subjects with CSU; 100 mg b.i.d., N = 100 interim) was “no bleeding events”. The “SOC Infections and infestations” value (subjects with CSU; 100 mg b.i.d., N = 100 interim) was 14%, the “SOC Skin and subcutaneous tissue disorders” value (subjects with CSU; 100 mg b.i.d., N = 100 interim) was 13% and the Safety signal (subjects with CSU; 100 subjects, median exposure 17.86 weeks) was “No safety signal”. For the same molecule, the “ECG findings or QT of >500 ms” value (subjects with CSU; ES and CS, any patient) was “no significant ECG findings or QT of >500 ms”, the Deaths (subjects with CSU; ES, 100 mg b.i.d., N = 183) was “no deaths” and the “Incidence of AESI bleeding” value (subjects with CSU; ES, 100 mg b.i.d., N = 183) was 4.4%. For the same molecule, the “Incidence of AESI cytopenias” value (subjects with CSU; ES, 100 mg b.i.d., N = 183) was 0.5%, the “Incidence of AESI infections” value (subjects with CSU; ES, 100 mg b.i.d., N = 183) was 23% and the “Skin and subcutaneous tissue disorders (AEs by primary system organ class)” value (subjects with CSU; ES, 100 mg b.i.d., N = 183, median 35.14 wks) was 32 n. For the same molecule, the “Discontinued study treatment due to AE(s)” value (subjects with CSU; [4]) was 6 n, the “Headache (AEs by PT)” value (subjects with CSU; [4]) was 6.6% and the “Infections and infestations (AEs by primary system organ class)” value (subjects with CSU; [4]) was 23.0%. For the same molecule, the “Patients with SAE(s)” value (subjects with CSU; [4]) was 4 n, the “Skin and subcutaneous tissue disorders (AEs by primary system organ class)” value (subjects with CSU; [4]) was 17.5% and the “Patients with newly occurring isolated ALT>3xULN” value (subjects with CSU; ES, normalized within 4 weeks) was 1 patient.
